Measurements published in US7563862B2, “Neural regeneration peptides and methods for their use in treatment of brain damage” (Neuren Pharmaceuticals Limited, priority 2001, dated 2009).
“Also recorded” adds a separate entry of the source. Where two headings read alike, the source gives them in different places. Ends that are not written are not given here. Peptide text beside a SMILES is read from it.

What was measured:
cerebellar microexplants [1] = test: cerebellar microexplant survival assay, 3-NP/glutamate injury; assay type: cell-based, rat; conditions: for concentration of maximal neuroprotective effect / neuroprotective activity compared to NRP-5 RG: NRP-5 RG analogues
Procedure: Toxicological and drug administration experiments were designed such that 1/100 parts of toxin and neuroprotective drug were administered simultaneously to the freshly prepared cerebellar microexplants derived from P-4 or P8 rats. Glutamate was prepared as a 50 mM stock solution in MilliQ water while 50 mM 3-nitropropionic acid was pH-adjusted (pH 6.8-7.2) in MilliQ water. The concentrations of the oxidative stress inducing toxin, 3-nitropropionic acid (3-NP), and the excitotoxin, glutamate, in the assay were 0.5 mM each. Lyophilized peptides were reconstituted in PBS or 100 μg/ml human transferrin as a 10 μM stock solution. Subsequently, serial dilutions were made. Cerebellar microexplants were cultivated for 48-72 hours at 34° C., 5% CO2 in air and 100% humidity before they were fixed by increasing amounts of paraformaldehyde (0.4%, 1.2%, 3% and 4%—each treatment 2-3 min).
For statistical analysis of survival, four fields (each field having an area of 0.65 mm^2) of each fixed cerebellar culture with the highest cell densities were chosen, and cells displaying neurite outgrowth were counted. Statistical significance was measured by Student's t-test.
(§1) Laminated cerebellar cortex was extracted from P3/4, P7/8 rat pups and triturated through gauze having a 125 μm pore size to obtain uniformly sized microexplants. After centrifugation for 3 minutes at 61 g and the pellet was resuspended in StartV medium (Biochrom) and the suspension seeded on poly-D-lysine coated coverslips in 6-well plates and incubated for 3 hrs to allow adherence, before 1 ml StartV per well was added. As described previously, glutamate/3-NP and NRP were also added. The explants are cultivated at 34° C. at 5% CO2 and 100% humidity for 48-72 hrs. BrdU was administered at start of cultivation for proliferation rate measurements and cells are counted per microscopic field after 48-72 hrs.
Cerebellar Microexplants were prepared as described in Example 9 with the addition of SDF-1 as described, in addition to glutamate/3-NP, and NRP.
Cerebellar microexplants were prepared as described in Example 9 with the addition of SDF-1, Wortmannin and PD98059 (both Calbiochem), as described, in addition to glutamate/3-NP, and NRP.

mouse neural stem cells = test: haptotactic migration assay, mouse neural stem cells; assay type: cell-based
Procedure: (§2) NRPs were tested for migration-inducing/chemoattractive activity on mouse neural stem cells, EGF-dependent immortalized mouse neural stem cell line MEB5 and wild-type PC-12 cells in a haptotactic migration assay as described below.
(§3) Initial NRP Coating. Control wells of Transwell plates (Coming) with 12 μm pore size were coated in 1.5 ml of the BSA/PBS vehicle. Remaining plates were coated using various concentrations of NRPs ranging between 1-100 ng/ml (prepared in PBS containing 10 ug/ml BSA). The plates were then incubated at 37° C. for 1 hr to coat. Wells were then rinsed 2× with 1 ml sterile PBS.
(§4) Laminin ([…]) for MEB-5 cells, PDL (50 μg/ml)+Matrigel for mouse primary stem cells and fibronectin (25 ug/ml)+matrigel for PC-12 cells were used as extracellular matrix (ECM) coating for the cells. All ECM compounds were diluted in PBS. 1.5 ml of the ECM per well was incubated for 2 hrs at room temperature. The wells were then rinsed once with Iml serum-free media (e.g. NB/B27) followed by 1 ml PBS wash.
A 5 ug/mL PDL/PLL mixture (in PBS) was used to coat inserts. Subsequently the inserts were rinsed with MilliQ water.
Transferring to Media and Cell Seeding: Appropriate medium (MEB-5 cells: DMEM-high glucose+N2 (growth medium supplement from Invitrogen)+10 ng/biotin+2 mM L-glutamine, primary stem cells: NSA-medium from Euroclone and for PC-12 cells: NB/B27 medium) was transferred into the 12-well plates. […] Plates were fixed at 1-2 days in vitro (DIV).
Fixation: Inserts were discarded and wells fixed in successive dilutions of PFA (0.4, 1.2, 3 and 4%) for 3-5min in each dilution. […] The wells were rinsed and stored in PBS until counting.
A haptotactic migration assay was performed according to the description of Example 10 using rat NRP-9SD (SEQ ID NO:34) (4 nM) and mouse NRP-7SW (SEQ ID NO:24) (0.4 nM) as attractants in a Boyden chamber

cerebellar microexplants [2] = test: cerebellar microexplant proliferation assay under injury (BrdU-positive nuclei); assay type: cell-based, rat
Procedure: Using the toxins described above, cerebellar explants were exposed for 24 hours, at the beginning of culturing to dilutions of NRP and 0.1 μM BrdU. Subsequently, 80% of the medium was changed without addition of new toxins and NRPs. The cerebellar cultures were fixed as described above after 3 days in vitro. The detection of the incorporated BrdU level was performed as described previously. Under these conditions, over 99% of the cells in the cerebellar population were neurons. Therefore any increase in cell number after NRP administration was most likely due to neuronal cell proliferation.
For statistical analysis of proliferation four fields (each field having an area of 0.65 mm^2) of each fixed cerebellar culture displaying highest density of BrdU-positive nuclei were chosen, and BrdU-positive nuclei were counted. Statistical significance was measured by Student's t-test.
as §1

MEB-5 cells = test: haptotactic migration assay, MEB-5 cells; assay type: cell-based, mouse; conditions: 10 ng/ml coating, 200,000 cells
Procedure: as §2, §3, §4
(§5) A 5 ug/mL PDL/PLL mixture (in PBS) was used to coat inserts. Subsequently the inserts were rinsed with MilliQ water. […]

wild-type PC-12 cells = test: haptotactic migration assay, PC-12 cells; assay type: cell-based; conditions: 50 ng/ml coating, 200,000 cells
Procedure: as §2, §3, §4, §5

[3] = tested on: OTCs of rat embryonic forebrain; test: embryonic forebrain OTC migration assay (medial ganglionic eminence to cortical anlage); assay type: cell-based
Procedure: OTCs of rat embryonic forebrain were prepared as described. Briefly, pregnant rats at E17 gestation were sacrificed, the fetuses rapidly removed. Coronal slices of the forebrain were cut at 400 μm thickness and placed onto millicell PICM ORG50 membranes (Millipore) in 3 cm Petri dishes containing 1 ml of DMEMI/F12, 6.5 mg/ml glucose, 0.1 mM glutamine and 10% FCS for 34 hrs. Afterwards the medium was exchanged to 1 ml Neurobasal/B27, 6.5 mg/ml glucose, 0.1 mM glutamine, to which 10 μl PBS, NRP, or SDF-1 were added for the indicated concentrations and a small DiI (1,1′-dioctodecycyl-3,3,3′3-tetramethylindocarbocyanine) crystal of uniform size was placed in the medial ganglionic eminence (n=10-15) under a stereomicroscope. After 24 hrs cultivation the total number or migrated neurons dispersed in the ganglionic eminence and cortex were counted under an inverted fluorescent microscope.

neural stem cells = test: neural stem cell differentiation assay, neuronal differentiation and axonal outgrowth; assay type: cell-based, mouse; conditions: together with BrdU for 24 hrs
Procedure: Neural stem cells were derived from E15 C3H mice forebrain and cultured as neurospheres in the presence of 20 ng/ml EGF and 10 ng/ml bFGF as described in Gritti et al. (2001). Briefly, timed pregnant mice were sacrificed and the embryos removed. Under sterile conditions the brains were removed and the forebrains dissected. The tissue was dissociated by trituration and pelleted by 75 g centrifugation for 10 minutes and the cells seeded in non-coated tissue culture flasks in NSA medium with growth factors. For passaging neurospheres were triturated and seeded as single cells.
Upon reaching a sufficient size, neurospheres were dissociated by trituration and plated at a density of 200,000 cells per well on laminin-coated 13 mm diameter coverslips that had been placed in Nunc 24 well plates. The plating medium was a 1:1 mixture of DMEM/F12 supplemented with N2 and Neurobasal supplemented with B27 and 2 mM glutamine. To enhance survival after plating the medium contained 2 ng/ml bFGF. After 24 h the medium was replaced with a neuronal differentiation-promoting medium (1:3 mixture of DMEM/F12 supplemented with N2 and Neurobasal supplemented with B27 and 2 mM glutamine) and except for the controls the test compound or IGF-1 was added simultaneously. The medium with fresh compound was exchanged every other day. Seven days after plating the differentiating cells were incubated for 20 minutes in differentiation medium containing 100 ng/ml Syto21 to label the nuclei of viable cells. Subsequently, they were fixed with 4% paraformaldehyde and immunostained with a mouse anti-βIII tubulin antibody and a goat anti-mouse Cy3-coupled secondary antibody.
After staining the coverslips were removed from the tissue culture plate and mounted on […], using Immunofluore fluorescent mounting medium. To analyse the percentage of neurons of total cells, with a Zeiss axiophot microscope, equipped with Axoivision software, at 20× magnification images of two random fields per well were taken in the red (tubulin stained neurons) and green (Syto21 stained nuclei) fluorescent channel. Neurons and nuclei per field were counted and the neuronal percentage of total cell number determined.

With `CC(C)C[C@H](NC(=O)[C@H](CS)NC(=O)[C@@H]1CCCN1C(=O)[C@H](Cc1c[nH]cn1)NC(=O)[C@H](CC(C)C)NC(=O)[C@H](CO)NC(=O)CNC(=O)[C@@H]1CCCN1C(=O)[C@H](C)NC(=O)[C@H](CCCNC(=N)N)NC(=O)[C@H](CCCNC(=N)N)NC(=O)[C@H](C)NC(=O)[C@H](CCC(=O)O)NC(=O)[C@@H]1CCCN1C(=O)[C@H](CC(=O)O)NC(=O)[C@@H](N)CCCCN)C(=O)N[C@@H](C)C(=O)N[C@@H](C)C(=O)N[C@@H](CO)C(=O)N[C@@H](CS)C(=O)N[C@@H](CO)C(=O)N[C@@H](C)C(=O)N[C@@H](C)C(=O)NCC(N)=O` [NRP-2 segment KG] (H-KDPEARRAPGSLHPCLAASCSAAG-NH2) the cytotoxicity (cerebellar microexplants [1]) was “no cytotoxicity”.

`COc1cccc(-c2cc(=O)c3ccccc3o2)c1N` [PD98509, reference compound] was tested, and the “effect of inhibitor alone under vehicle and injury conditions” value (cerebellar microexplants [1]) was “only modest toxicity”, the “effect of inhibitor / neutralizing antibody on NRP neuroprotective activity” value (cerebellar microexplants [1]; with NRP-9 SD, antibody 1 μg/ml 72 hours, wortmannin 100 nM) was “abolished the neuroprotective activity of NRP; also recorded: completely blocked neuroprotective activity” and the “effect of inhibitor on NRP-induced increase in migrating NSC” value (mouse neural stem cells; NRP-9 SD (4 nM), 15 μM PD98509) was “almost completely blocked; also recorded: inhibited”.

For `COC[C@H]1OC(=O)c2coc3c2[C@@]1(C)C1=C(C3=O)[C@@H]2CCC(=O)[C@@]2(C)C[C@H]1OC(C)=O` [wortmannin, reference compound], the “effect of inhibitor alone under vehicle and injury conditions” value (cerebellar microexplants [1]; without NRP) was “no significant effect after vehicle and injury conditions without the NRP”.

For “AAARRDAPGRAGG-NH2 [SEQ ID NO:45, NRP-5 RG analogue]”, the “concentration of maximal neuroprotective effect” value (cerebellar microexplants [1]) was “about 1 pM” and the “neuroprotective activity compared to NRP-5 RG” value (cerebellar microexplants [1]) was “even higher neuroprotective activity than the original NRP-5 RG”.

For “GTPGRAEAGGQ-NH2 [NRP-4 segment GQ, 11-mer of NRP-4]”, the “concentration range of maximal biological activity for survival” value (cerebellar microexplants [1]; NRP simultaneous with 3-NP/glutamate, 48 hrs) was 10-100 nM, the “survival rates after severe injury” value (cerebellar microexplants [1]; nanomolar concentrations) was 50% and the “concentrations with statistically significant effects” value (cerebellar microexplants [1]; simultaneous, 48 hrs, units in value) was 10 pM, 100 pM, 10 nM and 100 nM. For the same molecule, the “up regulation in the proliferation rate compared to injured cerebellar microexplants” value (cerebellar microexplants [2]; 10 nM) was 132.2% and the “concentration at which proliferation induction was observed” value (cerebellar microexplants [2]; 3-NP/glutamate, NRP and BrdU 24 hrs, counted after 72 hrs) was 10 nM.

For “GTPGRAEAGGQVSPCLAASCSQAYG-NH2 (cysteine pairing not given here) [NRP-4 GG, 25-mer fragment of NRP-4]”, the “more MEB-5 cells migrated compared with BSA-vehicle” value (MEB-5 cells) was 195%, the “more E14 cells migrated compared with BSA-vehicle” value (mouse neural stem cells; 10 ng/ml coating, 200,000 cells) was 93.7% and the “more PC-12 cells migrated compared with BSA vehicle” value (wild-type PC-12 cells) was 80.8%.

“REAAADAPGRAGG-NH2 [SEQ ID NO:44, NRP-5 RG analogue]” was tested, and the “concentration of maximal neuroprotective effect” value (cerebellar microexplants [1]) was “about 1 pM” and the “neuroprotective activity compared to NRP-5 RG” value (cerebellar microexplants [1]) was “did not significantly change in the activity profile”.

In the case of “REGRRDAAAAAGG-NH2 [SEQ ID NO:47, NRP-5 RG analogue, PGR-domain substituted]”, the “neuroprotective activity compared to NRP-5 RG” value (cerebellar microexplants [1]) is reported as “some neuroprotective effect at certain concentrations” and the “concentrations with some neuroprotective effect” value (cerebellar microexplants [1]; units in value) is reported as 0.1 pM, 10 pM and 100 nM.

With “REGRRDAPGRAAA-NH2 [SEQ ID NO:46, NRP-5 RG analogue, C-terminal GG-domain substituted]” the “only concentration with statistically significant effect” value (cerebellar microexplants [1]) was 100 nM and the “neuroprotective activity compared to NRP-5 RG” value (cerebellar microexplants [1]) was “had less effect than NRP-5 RP”.

In the case of “SDF-1: chemokine stromal-derived factor, 63 amino acid long mature human SDF-1 [reference compound]”, the “neuroprotection compared to NRP” value (cerebellar microexplants [1]) is reported as “narrow dose range of efficacy; also recorded: only a limited neuroprotective effect”, the neuroprotection (cerebellar microexplants [1]; 10 nM, 0.5 mM 3-NP/glutamate 48 hrs) is reported as “less than 30%” and the “number of cells attracted” value (mouse neural stem cells; 100 nM coating) is reported as “attracted a similar number of cells, as did the 0.4 nM mouse NRP-7SW”. For the same molecule, the “potency compared to NRP” value [3] was “far less potent than NRP”.

In the case of “SEPEARRAQGGQIPSERVLSD-NH2 [NRP-9 segment SD, 21-mer of rat NRP-9]”, the “concentration range of maximal neuronal survival activity” value (cerebellar microexplants [1]; 0.5 mM 3-NP/glutamate, 48 hrs) is reported as 0.1 to 10 pM and the “cells attracted compared to control condition” value (mouse neural stem cells; 4 nM) is reported as “Nearly four times”.

B1: NRP-9: rat ortholog of mouse NRP-7 (protein)
chain: MLKLNEPKPGVVTSEELTGSGIWSSASGPNCSQHRDGEDGGCGRFINLAGNRTQRGCFPEAFPLLQAEPAEYGGPRSGHRLLRGSRGSEPEARRAQGGQIPSERVLSD
modifications: RAT
With B1 the “proliferation rate during differentiation of NSC” value (neural stem cells) was “an increase in the proliferation rate”.
